Entries after “also recorded” stand apart in the source; their conditions may differ. Non-standard residues stand in square brackets, D forms with d. Residues, ends and D or L forms follow the SMILES beside them. *: point of attachment. Phe(F5) = N[C@@H](Cc1c(F)c(F)c(F)c(F)c1F)C(=O)O; hArg = N=C(N)NCCCC[C@H](N)C(=O)O; 12Ado = NCCCCCCCCCCCC(=O)O; Nle = CCCC[C@H](N)C(=O)O; Orn = NCCC[C@H](N)C(=O)O; Abu = CC[C@H](N)C(=O)O; PhAc = O=C(Cc1ccccc1)*
Legend:
[1] = tested on: bleomycin-induced lung inflammation and fibrosis; assay: Bleomycin mouse model, lung histopathology scores; type: in vivo, C57Bl/6J mice; conditions: bleomycin-treated mice
Protocol: Abstract. Purpose. Growth hormone-releasing hormone (GHRH) is a 44-amino acid peptide that regulates growth hormone (GH) secretion. It was tested whether a GHRH receptor (GHRH-R) antagonist, MIA-602, would inhibit bleomycin-induced lung inflammation and/or fibrosis in C57Bl/6J mice. Methods. It was tested whether MIA-602 (5 μg or vehicle given subcutaneously [SC] on days 1-21) would decrease lung inflammation (at day 14) and/or fibrosis (at day 28) in mice treated with intraperitoneal (IP) bleomycin (0.8 units on days 1, 3, 7, 10, 14 and 21). […] Results. Inflammation (histopathologic scores assessed blindly) was less evident in mice treated with MIA-602 for 14 days. […] GHRH-R antagonist increased basal and maximal oxygen consumption of cultured lung fibroblasts. […] Conclusions. MIA-602 reduced lung inflammation and fibrosis due to bleomycin.
Experimental animals. 8-week old C57Bl/6J male mice (The Jackson Laboratory, Bar Harbor, Me.) were used in these experiments. Mice weighed about 26 grams at the start. Mice were randomly allocated to the experimental groups and housed in identical filter top cages in a ventilated rack. Mice were exposed to a 12-hour light/dark cycle and had free access to standard laboratory chow and water.
Bleomycin and GHRH-R antagonist treatment. Mice were treated with 0.8 units of bleomycin (Bleomycin for Injection USP, Hospira, Lake Forest, Ill.) intraperitoneally (IP) on days 1, 3, 7, 10, 14 and 21 (Collins S, Chan-Li Y, Oh M, Vigeland C, Limjunyawong N, Mitzner W, Powell J D, Horton M R (2016). JCI Insight 1(4):1-13). Mice (randomly assigned) were simultaneously treated subcutaneously (sc) with MIA-602 (5 μg/day) or its vehicle (100 μL/day). MIA-602 was dissolved in DMSO (ACS grade; Sigma-Aldrich) and diluted 1:500 in normal saline for daily sc injection on days 0-21.
Tissue preparations. Mice were killed by CO2 inhalation before any treatment, or on days 14 or 28 for micro-CT scans of lungs and harvesting of lung tissue (Vande Vel de G, Poelmans J, De Langhe E, Hillen A, Vanoirbeek J, Himmelreich U, Lories R (2016). Dis Model Mech 9:91). The right mainstem bronchus was ligated and the right lung removed and frozen at −80° C. for hydroxyproline (HP) assays. The left lung was filled with 10% buffered formalin at […] cm H2O pressure, the bronchus ligated, and the lung fixed in formalin. Fixed lungs were embedded in wax and 5 μm sections stained with hematoxylin and eosin (H&E) or Masson's trichrome stain.
Lung histopathology. Fibrosis was quantified in trichrome-stained sections using a modification of the Ashcroft score that describes grades of fibrosis. Inflammation in lung tissue was quantified in H&E stained sections (Hubner R, Gitter W, El Mokhtari N, Mathiak M, Both M, Bolte H, Freitag-Wolf S, Bewig B (2008). Biotechniques 44:507-517).
Data analysis. Data are reported as arithmetic means±SEM or SD as indicated. Confidence intervals (5-95%) and ranges were used to describe histopathological scores. ANOVA followed by Dunnett's test or the Bonnferoni correction was used for multiple comparisons with a control or among groups (Kusuoka H, Hoffman J (2002). Circ Res 91:662-671). At least six mice were planned to be available at each time point in each group, so that there would be sufficient power to detect a 20% change in lung hydroxyproline given an assumed coefficient of variance of 0.2. P≤0.05 was considered significant.

[2] = tested on: gene expression in normal mouse lung fibroblasts; assay: RNAseq of cultured lung fibroblasts; type: cell-based; conditions: 1 and 5 μM MIA-602, not exposed to bleomycin
Protocol: Lung fibroblasts. Newborn mouse lung fibroblasts (Mlg 2908) were obtained from the American Type Culture Collection, Manassas, Va. and cultured in Eagle's minimal essential medium. Cells were grown in 6-well plates before incubation with 1 or 5 μM MIA-602 or vehicle, RNA isolation, and oxygen consumption measurements.
RNA was extracted from cultured fibroblasts using a Direct-zol RNA MicroPrep kit (R2060; Zymo Research, Irvine, Calif.). Cells were washed with PBS and lysed in TRIreagent™, then purified using Direct-zol RNA columns. DNase I treatment was done in columns and RNA eluted in DNase/Rnase-free water.
RNAseq and Pathway analyses. At least 10 ng of total RNA was used as input for the KAPA RNA HyperPrep Kit with RiboErase (HMR) to create ribosomal RNA-depleted sequencing libraries, including sample indexing, to allow for multiplexing. Cluster generation and sequencing was done on the Illumina cBOT and HiSeq 3000 using reagents provided by Illumina, finally generating >32 million single-end 100 base reads per sample.

[3] = tested on: cellular levels of oxidant stress; conditions: Barbutis and Schally 2008; cited from earlier work

## CCCC[C@H](NC(=O)[C@@H](NC(=O)[C@H](CC(=O)O)NC(=O)[C@H](CCC(N)=O)NC(=O)[C@H](CC(C)C)NC(=O)[C@H](CC(C)C)NC(=O)[C@H](CCCN)NC(=O)[C@H](Cc1c[nH]cn1)NC(=O)[C@H](C)NC(=O)[C@H](CO)NC(=O)[C@H](CC(C)C)NC(=O)[C@H](CCC(N)=O)NC(=O)[C@H](CC)NC(=O)[C@H](CC(C)C)NC(=O)[C@@H](NC(=O)[C@H](CCCN)NC(=O)[C@H](Cc1c[nH]cn1)NC(=O)[C@H](Cc1ccc(OC)cc1)NC(=O)[C@H](CCCCNC(=N)N)NC(=O)[C@H](C)NC(=O)[C@@H](NC(=O)[C@H](Cc1c(F)c(F)c(F)c(F)c1F)NC(=O)[C@@H](NC(=O)[C@H](C)NC(=O)[C@H](CC(=O)O)NC(=O)[C@@H](CCCNC(=N)N)NC(=O)[C@H](Cc1ccc(O)cc1)NC(=O)CCCCCCCCCCCNC(=O)Cc1ccccc1)[C@@H](C)CC)[C@@H](C)O)C(C)C)[C@@H](C)CC)C(=O)N[C@H](CCCNC(=N)N)C(=O)N[C@@H](CCCCNC(=N)N)C(N)=O [MIA-602, PhAC-Ada, Tyr D-Arg, Asp, Ala, Ile, 5FPhe, Thr, Ala, Har, Tyr(Me), His, Orn, Val, Leu, Abu, Gin, Leu, Ser, Ala, His, Om, Leu, Leu, Gin, Asp, Ile; Nle, D-Arg, Har NH2, reference compound] ({PhAc-12Ado}-Y[dR]DAI[Phe(F5)]TA[hArg]Y(Me)H[Orn]VL[Abu]QLSAH[Orn]LLQDI[Nle][dR][hArg]-NH2)
[1]; after 14 days, n=4
  lung inflammation histopathologic score, 5%-95% CI: 0.4-1.4
  lung inflammation histopathologic score, range: 0.6-1.2
[1]; after 28 days, n=5
  lung fibrosis histopathologic score (modified Ashcroft), 5%-95% CI: 1.1-2.9
  lung fibrosis histopathologic score (modified Ashcroft), range: 1.0-3.0
[1]; MIA-602 vs vehicle
  lung fibrosis, histopathology (in words): decreased; also recorded: Less fibrosis appeared to be present
  lung inflammation, histopathology (in words): decreased; also recorded: Less inflammation appeared to be present
[2]
  fibroblast gene expression, RNA-seq (in words): significant downregulation of genes involved in collagen fibril organization, cell-matrix adhesion and elastic fiber assembly
[3]
  cellular levels of oxidant stress (in words): decreased
